Test results taken from patent publication US5229409A, “6-substituted-tetrahydrobenz[cd]indoles” (Eli Lilly and Company, priority 1991, dated 1993).

Key:
5-HT1A receptor = molecular target: T1, 5-HT1A receptor (Rattus norvegicus, UniProt P19327); assay: [3H]8-OH-DPAT binding to 5-HT1A sites in hippocampal membranes; set-up: species or system rat (male Sprague-Dawley); conditions: [3H]8-OH-DPAT 1.0 nM, pH 7.4, 37° C
T1 construct: the brains were rapidly chilled and dissected to obtain the hippocampi; from tissue; host or cells: hippocampi of male Sprague-Dawley rats (150-250 g), washed membranes
T1 sequence (P19327 1-422): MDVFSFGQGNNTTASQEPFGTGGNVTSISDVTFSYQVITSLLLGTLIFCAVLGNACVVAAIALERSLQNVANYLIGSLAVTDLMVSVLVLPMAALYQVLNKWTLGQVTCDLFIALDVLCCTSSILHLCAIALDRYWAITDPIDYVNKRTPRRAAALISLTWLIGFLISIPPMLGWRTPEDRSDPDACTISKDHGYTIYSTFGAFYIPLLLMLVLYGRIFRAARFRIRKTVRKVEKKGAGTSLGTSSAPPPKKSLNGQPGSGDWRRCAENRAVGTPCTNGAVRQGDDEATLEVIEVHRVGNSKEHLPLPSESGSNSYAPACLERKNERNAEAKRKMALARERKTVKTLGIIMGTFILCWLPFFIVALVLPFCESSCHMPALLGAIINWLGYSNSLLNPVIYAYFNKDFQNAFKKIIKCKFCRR
Experimental: The affinities of the compounds at the central […] described by Taylor, et al., (J. Pharmacol. Exp. Ther. 236:118-125, 1986). Membranes for the binding assay were prepared from male Sprague-Dawley rats (150-250 g). The animals were killed by decapitation, and the brains were rapidly chilled and dissected to obtain the hippocampi. The hippocampi were either prepared that day or stored frozen (-70° C.) until the day of preparation. Membranes were prepared by homogenizing the tissue in 40 volumes of ice-cold Tris-HCl buffer (50 mM, pH 7.4 at 22° C.) using a Techmar Tissumizer (setting 65 for 15 sec), and the homogenate was centrifuged at 39800 xg for 10 min. The resulting pellet then resuspended in the same buffer, and the centrifugation and resuspension process was repeated three additional times to wash the membranes. Between the second and third washes the resuspended membranes were incubated for 10 min at 37° C. to facilitate the removal of endogenous ligands. The final pellet was resuspended in 67 mM Tris-HCl, pH 7.4, to a concentration of 2 mg of tissue original wet weight/200 μl. This homogenate was stored frozen (-70° C.) until the day of the binding assay. […] The assay tubes were incubated for 10 min at 37° C, and the contents were then rapidly filtered through GF/B filters (pretreated with 0.5% polyethylenimine), followed by four one-mL washes with ice cold buffer. The radioactivity trapped by the filters was quantitated by liquid scintillation spectrometry, and specific [^3 H]8-OH-DPAT binding to the 5-HT1A sites was defined as the difference between [^3 H]8-OH-DPAT bound in the presence and absence of 10 μM 5-HT.
The affinity of the particular compound at the 5-HT1A receptor is expressed as IC50 value, i.e., the concentration required to inhibit 50% of the binding. The IC50 values were determined from 12-point competition curves using nonlinear regression (SYSTAT, SYSTAT, INC., Evanston, Ill.).

serum corticosterone = serum corticosterone concentration in vivo in rats; set-up: species or system rat (male albino); conditions: 1 hour, series 0.03-3 mg/kg
Experimental: (§1) In another experiment certain compounds of the Examples were evaluated to determine ability to affect the 5-hydroxyindoles serotonin and 5-hydroxyindole acetic acid (5HIAA), and serum corticosterone, in vivo. Male albino rats were injected subcutaneously with an aqueous solution of the compound. The pH of the solution was adjusted as necessary to solubilize the compound. A control of the solution without the test compound was similarly injected into a control animal. The rats were decapitated one hour later. Trunk blood was collected and allowed to clot. After centrifugation, serum was stored frozen prior to analysis. The whole brain was removed and frozen on dry ice for storage prior to analysis. The serum corticosterone concentration was measured spectrofluorometrically using the procedure of Solem and Brinck-Johnson, "An Evaluation of a Method for Determination of Free Corticosteroids in Minute Quantities of Mouse Plasma", Scand. J. Clin. Lab. Invest., Suppl. 80, p. 1-14 (1965), incorporated herein by reference. 5-Hydroxyindoleacetic acid (5HIAA) concentration in whole brain was measured by liquid chromatography with electrochemical detection as reported by Fuller and Perry, "Effects of Buspirone and its Metabolite, 1-(2-pyrimidinyl)piperazine, on Brain Monoamines and Their Metabolites in Rats", J. Pharmacol. Exp. Ther., 248, p. 50-56 (1989), incorporated herein by reference.

[1] = test system: 5-hydroxyindole acetic acid (5HIAA); assay: whole brain 5-hydroxyindoleacetic acid (5HIAA) concentration in vivo in rats; set-up: species or system rat (male albino); conditions: 1 hour, series 0.03-3 mg/kg
Experimental: as §1, with “The rats were decapitated one hour later.” left out

serotonin = assay: whole brain serotonin concentration in vivo in rats; set-up: species or system rat (male albino); conditions: 1 hour, series 0.03-3 mg/kg
Experimental: as §1

5-HT1D receptor = molecular target: T2, 5-HT1D receptor (Bos taurus, UniProt F1MGM3); assay: [3H]5-HT binding to 5-HT1D sites in caudate nuclei membranes; conditions: bovine caudate membranes, [3H]5-HT 1.7-1.9 nM, pH 7.4, 37° C
T2 construct: the caudate nuclei were dissected out and frozen at -70° C; tissue Pel-Freeze Biologicals; host or cells: bovine caudate nuclei, washed membranes
Experimental: The affinities of the compounds at the central 5-HT1D binding sites were determined using a modification of the binding assay described by Heuring and Peroutka (J. Neurosci. 7:894-903, 1987). Bovine brains were obtained from Pel-Freeze Biologicals, and the caudate nuclei were dissected out and frozen at -70° C. until the time that the membranes were prepared for the binding assays. At that time the tissues were homogenized in 40 volumes of ice-cold Tris-HCl buffer (50 mM, pH 7.4 at 22° C.) with a Techmar Tissumizer (setting 65 for 15 sec), and the homogenate was centrifuged at 39,800 g for 10 min. The resulting pellet was then resuspended in the same buffer, and the centrifugation and resuspension process was repeated three additional times to wash the membranes. Between the second and third washes the resuspended membranes were incubated for 10 min at 37° C. to facilitate the removal of endogenous 5-HT. the final pellet was resuspended in Tris buffer to a concentration of 25 mg of original tissue wet weight/ml for use in the binding assay. […] The assay tubes were incubated for 10 min at 37° C., and the contents were then rapidly filtered through GF/B filters (pretreated with 0.5% polyethylenimine), followed by four one-mL washes with ice-cold buffer. The radioactivity trapped by the filters was quantitated by liquid scintillation spectrometry, and specific [^3 H]5-HT binding to the 5HT1D sites were defined as the difference between [^3 H]5-HT bound in the presence and absence of 10 μM 5-HT.
The affinities of compounds at the 5-HT1D receptor are expressed as IC50 values, i.e., the concentration required to inhibit 50% of the binding. These values were determined from 12-point competition curves using nonlinear regression (SYSTAT, SYSTAT, Inc. Evanston, Ill.).

T2 sequence (F1MGM3 1-403): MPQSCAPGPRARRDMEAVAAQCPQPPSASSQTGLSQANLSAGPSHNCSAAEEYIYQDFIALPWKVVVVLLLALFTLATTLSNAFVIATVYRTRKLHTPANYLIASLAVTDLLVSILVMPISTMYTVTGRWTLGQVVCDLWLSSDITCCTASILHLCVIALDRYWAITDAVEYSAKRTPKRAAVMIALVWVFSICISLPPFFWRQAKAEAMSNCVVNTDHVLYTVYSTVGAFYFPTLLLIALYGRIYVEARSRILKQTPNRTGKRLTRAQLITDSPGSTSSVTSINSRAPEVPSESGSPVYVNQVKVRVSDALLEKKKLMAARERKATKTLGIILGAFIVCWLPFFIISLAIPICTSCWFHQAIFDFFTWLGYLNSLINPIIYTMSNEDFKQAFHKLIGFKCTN

Structure (SMILES)	IC50 (5-HT1A receptor) [nM]	Serum Corticosterone (serum corticosterone; 0.03 mg/kg s.c.) [microg./100 ml]	Serum Corticosterone (serum corticosterone; 0.3 mg/kg s.c.) [microg./100 ml]	Serum Corticosterone (serum corticosterone; 3 mg/kg s.c.) [microg./100 ml]	5HIAA ([1]; 0.03 mg/kg s.c.) [nmol/g]	5HIAA ([1]; 0.3 mg/kg s.c.) [nmol/g]	5HIAA ([1]; 3 mg/kg s.c.) [nmol/g]	Serotonin (serotonin; 0.03 mg/kg s.c.) [nmol/g]	Serotonin (serotonin; 0.3 mg/kg s.c.) [nmol/g]	Serotonin (serotonin; 3 mg/kg s.c.) [nmol/g]	IC50 (5-HT1D receptor) [nM]
CCCN(CCC)C1Cc2c[nH]c3ccc(C(=O)C(C)(C)C)c(c23)C1 (racemic) [Example 1, (±)-6-(2,2-Dimethylpropanoyl)-4-(di-n-propylamino)-1,3,4,5-tetrahydrobenz[cd]indole]	0.5	8.2 ± 3.2	36.0 ± 4.8	44.2 ± 1.5	1.58 ± 0.05	1.31 ± 0.03	1.23 ± 0.04	3.15 ± 0.13	3.45 ± 0.10	3.38 ± 0.08	2.01
CCCN(CCC)[C@H]1Cc2c[nH]c3ccc(C(=O)c4ccccc4)c(c23)C1 [Example 10, (4R)-(+)-6-benzoyl-4-(di-n-propylamino)-1,3,4,5-tetrahydrobenz[cd]indole]	0.22	–	–	–	–	–	–	–	–	–	1.81
